Values quoted from earlier work, collected in PubChem BioAssay AID1259410 (Chemical Carcinogenesis Research Information System (CCRIS), 2018).
Square brackets hold non-standard residues; d marks the D form. Peptide text beside a SMILES is read from it. sY = N[C@@H](Cc1ccc(OS(=O)(=O)O)cc1)C(=O)O; pGlu = O=C1CC[C@@H](C(=O)O)N1

System: rodent tumor promotion studies, tumor incidence
Test: CCRIS tumor promotion studies

Clc1cc2c(cc1Cl)Oc1cc(Cl)c(Cl)cc1O2
outcome (Carcinogen: 7,12-DIMETHYLBENZ(A)ANTHRACENE, Doses [Carcinogen]: 0.2 UMOL, Route [Carcinogen]: DERMAL, Route [Promoter]: DERMAL, Species: MOUSE, Strain/Sex: HRS/FEMALE): integumentary system (skin): papilloma
outcome (Carcinogen: DIETHYLNITROSAMINE [55-18-5], Doses [Carcinogen]: 175 MG/KG BW ONCE AT 10 WK OF AGE (STUDY DURATION: 32 WK), Doses [Promoter]: 1750 NG/KG IN CORN OIL 1X/2 WK FOR 14 WK BEGINNING 18 WK POST CARCINOGEN DOSE (STUDY DURATION: 32 WK), Route [Carcinogen]: INTRAPERITONEAL, Route [Promoter]: GAVAGE, Species: RAT, Strain/Sex: SPRAGUE-DAWLEY/FEMALE): ovary: tumor
outcome (Carcinogen: DIETHYLNITROSAMINE [55-18-5], Doses [Carcinogen]: 175 MG/KG BW ONCE AT 10 WK OF AGE (STUDY DURATION: 32 WK), Doses [Promoter]: 1750 NG/KG IN CORN OIL 1X/2 WK FOR 30 WK BEGINNING 2 WK POST CARCINOGEN DOSE (STUDY DURATION: 32 WK), Route [Carcinogen]: INTRAPERITONEAL, Route [Promoter]: GAVAGE, Species: RAT, Strain/Sex: SPRAGUE-DAWLEY/FEMALE): ovary: tumor
outcome (Carcinogen: DIETHYLNITROSAMINE [55-18-5], Doses [Carcinogen]: 175 MG/KG BW ONCE AT 10 WK OF AGE (STUDY DURATION: 48 WK), Doses [Promoter]: 1750 NG/KG IN CORN OIL 1X/2 WK FOR 30 WK BEGINNING 2 WK POST CARCINOGEN DOSE (STUDY DURATION: 48 WK), Route [Carcinogen]: INTRAPERITONEAL, Route [Promoter]: GAVAGE, Species: RAT, Strain/Sex: SPRAGUE-DAWLEY/FEMALE): ovary: tumor
outcome (Carcinogen: DIETHYLNITROSAMINE [55-18-5], Doses [Carcinogen]: 175 MG/KG BW ONCE AT 10 WK OF AGE (STUDY DURATION: 48 WK), Doses [Promoter]: 1750 NG/KG IN CORN OIL 1X/2 WK FOR 30 WK BEGINNING 18 WK POST CARCINOGEN DOSE (STUDY DURATION: 48 WK), Route [Carcinogen]: INTRAPERITONEAL, Route [Promoter]: GAVAGE, Species: RAT, Strain/Sex: SPRAGUE-DAWLEY/FEMALE): ovary: tumor
outcome (Carcinogen: DIETHYLNITROSAMINE [55-18-5], Doses [Carcinogen]: 175 MG/KG BW ONCE AT 10 WK OF AGE (STUDY DURATION: 54 WK), Doses [Promoter]: 1750 NG/KG IN CORN OIL 1X/2 WK FOR 30 WK BEGINNING 18 WK POST CARCINOGEN DOSE (STUDY DURATION: 54 WK), Route [Carcinogen]: INTRAPERITONEAL, Route [Promoter]: GAVAGE, Species: RAT, Strain/Sex: SPRAGUE-DAWLEY/FEMALE): ovary: tumor
outcome (Carcinogen: DIETHYLNITROSAMINE [55-18-5], Doses [Carcinogen]: 175 MG/KG BW ONCE AT 10 WK OF AGE (STUDY DURATION: 62 WK), Doses [Promoter]: 1750 NG/KG IN CORN OIL 1X/2 WK FOR 30 WK BEGINNING 2 WK POST CARCINOGEN DOSE (STUDY DURATION: 62 WK), Route [Carcinogen]: INTRAPERITONEAL, Route [Promoter]: GAVAGE, Species: RAT, Strain/Sex: SPRAGUE-DAWLEY/FEMALE): ovary: tumor
outcome (Carcinogen: DIETHYLNITROSAMINE [55-18-5], Doses [Carcinogen]: 175 MG/KG BW ONCE AT 10 WK OF AGE (STUDY DURATION: 62 WK), Doses [Promoter]: 1750 NG/KG IN CORN OIL 1X/2 WK FOR 60 WK BEGINNING 2 WK POST CARCINOGEN DOSE (STUDY DURATION: 62 WK), Route [Carcinogen]: INTRAPERITONEAL, Route [Promoter]: GAVAGE, Species: RAT, Strain/Sex: SPRAGUE-DAWLEY/FEMALE): ovary: tumor
outcome (Carcinogen: DIETHYLNITROSAMINE, 55-18-5, Doses [Carcinogen]: 10 MG/KG ONCE, Doses [Promoter]: 0, 150 PPT IN DIET FOR DURATION OF STUDY BEGINNING 30 D POST CARCINOGEN DOSE (STUDY DURATION: 450 D), Route [Carcinogen]: INTRAPERITONEAL, Route [Promoter]: ORAL, Species: RAT, Strain/Sex: SPRAGUE-DAWLEY/FEMALE): liver: adenoma or carcinoma
outcome (Carcinogen: DIETHYLNITROSAMINE, 55-18-5, Doses [Carcinogen]: 90 MG/KG BW ONCE, Doses [Promoter]: 0, 0.5 UG/KG 1/WK FOR 20 WK BEGINNING 3 WK POST CARCINOGEN DOSE (STUDY DURATION: 47 WK), Route [Carcinogen]: INTRAPERITONEAL, Route [Promoter]: INTRAPERITONEAL, Species: MOUSE, Strain/Sex: B6D2F1/MALE): liver: tumor
outcome (Carcinogen: N-NITROSODIMETHYLAMINE, 62-75-7, Doses [Carcinogen]: 25 MG/KG ONCE AT 5 WK OF AGE, Doses [Promoter]: 0, 0.05 UG/KG/WK FOR 20 WK BEGINNING 3 WK POST CARCINOGEN DOSE (STUDY DURATION: 52 WK), Route [Carcinogen]: INTRAPERITONEAL, Route [Promoter]: INTRAPERITONEAL, Species: MOUSE, Strain/Sex: SWISS/MALE): lung: tumor
outcome (Carcinogen: N-NITROSODIMETHYLAMINE, 62-75-7, Doses [Carcinogen]: 25 MG/KG ONCE AT 5 WK OF AGE, Doses [Promoter]: 0, 1.6 UG/KG ONCE 3 WK POST CARCINOGEN DOSE (STUDY DURATION: 52 WK), Route [Carcinogen]: INTRAPERITONEAL, Route [Promoter]: INTRAPERITONEAL, Species: MOUSE, Strain/Sex: SWISS/MALE): lung: tumor
outcome (Doses [Carcinogen]: 5 UMOL IN 50 µL ACETONE, Doses [Promoter]: 3.75, 7.5, 15, 30 NG 2/WK, Doses [Promoter]: 3.75, 7.5, 15, 30 NG 2/WK, Route [Carcinogen]: DERMAL, Route [Promoter]: DERMAL, Species: MOUSE, Strain/Sex: HRS/FEMALE): integumentary system (skin): papilloma

CC1=C[C@H]2[C@@]3(O)[C@H](C)[C@@H](OC(=O)c4ccccc4)[C@]4(OC(=O)c5ccccc5)[C@H]([C@@H]3C=C(CO)C[C@]2(O)C1=O)C4(C)C
outcome (Carcinogen: 7,12-DIMETHYLBENZ(A)ANTHRACENE, Doses [Carcinogen]: TOP, Route [Carcinogen]: DERMAL, Route [Promoter]: DERMAL, Species: MOUSE, Strain/Sex: MALE,FEMALE): integumentary system (skin)

CSCC[C@H](NC(=O)[C@H](Cc1c[nH]c2ccccc12)NC(=O)CNC(=O)[C@@H](NC(=O)[C@H](Cc1ccc(OS(=O)(=O)O)cc1)NC(=O)[C@H](CC(=O)O)NC(=O)[C@H](CCC(N)=O)NC(=O)[C@@H]1CCC(=O)N1)[C@@H](C)O)C(=O)N[C@@H](CC(=O)O)C(=O)N[C@@H](Cc1ccccc1)C(N)=O ([pGlu]QD[sY]TGWMDF-NH2)
outcome (Carcinogen: 7,12-DIMETHYLBENZ[A]ANTHRACENE, 57-97-6, Doses [Carcinogen]: 2-3 MG ONCE, Doses [Promoter]: 0, 5 UG/KG 2/D FOR 15 D POST CARCINOGEN TREATMENT (STUDY DURATION: 6 MO), Route [Carcinogen]: PANCREATIC IMPLANT, Route [Promoter]: SUBCUTANEOUS, Species: RAT, Strain/Sex: SPRAGUE-DAWLEY/MALE): pancreas: carcinoma
outcome (Carcinogen: N-METHYL-N'-NITRO-N-NITROSOGUANIDINE, 70-25-7, Doses [Carcinogen]: 50 UG/ML IN DRINKING WATER FOR 20 WK, Doses [Promoter]: 0, 10 UG/KG IN OLIVE OIL 1/2 D FOR 20 WK BEGINNING 3 D AFTER CARCINOGEN DOSE (STUDY DURATION: 52 WK), Route [Carcinogen]: ORAL, Route [Promoter]: SUBCUTANEOUS, Species: RAT, Strain/Sex: WISTAR/MALE): glandular stomach: adenocarcinoma
outcome (Carcinogen: N-METHYL-N'-NITRO-N-NITROSOGUANIDINE, 70-25-7, Doses [Carcinogen]: 50 UG/ML IN DRINKING WATER FOR 25 WK, Doses [Promoter]: 2 UG/KG IN OLIVE OIL 1/2 D FOR 27 WK ADMINISTERED POST CARCINOGEN DOSE (STUDY DURATION: 52 WK), Route [Carcinogen]: ORAL, Route [Promoter]: SUBCUTANEOUS, Species: RAT, Strain/Sex: WISTAR/MALE): stomach: adenocarcinoma

C/C=C(\C(=C/C)c1ccc(O)cc1)c1ccc(O)cc1
outcome (Carcinogen: IRRADIATION, Doses [Carcinogen]: 260 CGY GAMMA RAYS AT DAY 20 OF PREGNANCY, Doses [Promoter]: 0, 0.376 UG/D RELEASED FROM PELLET IMPLANTED AFTER NURSING DISCONTINUED, PELLET REPLACED EVERY 8 WK (STUDY DURATION: 1 Y, Route [Carcinogen]: DERMAL, Route [Promoter]: IMPLANT, Species: RAT, Strain/Sex: WISTAR/FEMALE): mammary gland: tumor

CCCCCCCC/C=C\CCCCCCCC(=O)OC[C@@H](O)[C@H]1OC[C@H](O)[C@H]1O
outcome (Carcinogen: 7,12-DIMETHYLBENZ(A)ANTHRACENE, Doses [Carcinogen]: TOP, Route [Carcinogen]: DERMAL, Route [Promoter]: DERMAL, Species: MOUSE, Strain/Sex: MALE): integumentary system (skin)

O=C(O)CCC(=O)O
outcome (Carcinogen: N-BUTYL-N-(4-HYDROXYBUTYL)NITROSAMINE, 3817-11-6, Doses [Carcinogen]: 0.05% IN DRINKING WATER FOR 4 WK, Doses [Promoter]: 0, 5% IN BASAL DIET BEGINNING POST CARCINOGEN TREATMENT AND CONTINUING FOR 32 WK (STUDY DURATION: 36 WK), Route [Carcinogen]: ORAL, Route [Promoter]: ORAL, Species: RAT, Strain/Sex: F344/MALE): urinary bladder: papilloma, carcinoma

ClC(Cl)(Cl)Cl
outcome (Carcinogen: 3'-METHYL-4-DIMETHYLAMINOAZOBENZENE, Doses [Carcinogen]: DIET, Route [Carcinogen]: ORAL, Species: RAT, Strain/Sex: FEMALE): liver
outcome (Carcinogen: (+/-)-TRANS-7,8-DIHYDROBENZO[A]PYRENE-7,8-DIOL, 61443-57-0, Doses [Carcinogen]: 1 UG CO-ADMINISTERED WITH PROMOTER DOSE, Doses [Promoter]: 1 UG INJECTED INTO NEWLY HATCHED SAC-FRY CO-ADMINISTERED WITH CARCINOGEN DOSE (STUDY DURATION: 9 MO), Route [Carcinogen]: INJECTION, Route [Promoter]: INJECTION, Species: FISH, Strain/Sex: RAINBOW TROUT/MALE,FEMALE): liver: tumor
outcome (Doses [Carcinogen]: 20 NG/SAC-FRY, Doses [Promoter]: 0, 1 ML/KG AT 21-DAY INTERVALS FOR A TOTAL OF 3 DOSES BEGINNING 25 D POST CARCINOGEN TREATMENT (STUDY DURATION: 3 MO), Route [Carcinogen]: INJECTION, Route [Promoter]: INTRAPERITONEAL, Species: FISH, Strain/Sex: RAINBOW TROUT): liver: basophilic carcinoma

CC(=O)OO
outcome (Carcinogen: 7,12-DIMETHYLBENZ(A)ANTHRACENE, Doses [Carcinogen]: TOP, Route [Carcinogen]: DERMAL, Route [Promoter]: DERMAL, Species: MOUSE, Strain/Sex: FEMALE): integumentary system (skin)
